Source: PMC8572102 (Pharmacogenomics and Personalized Medicine, 2021)
Like-named read-outs stand apart in the source and are kept apart here.

Legend:
[1] = test system: CYP2C19 and CYP3A4; conditions: major metabolite of voriconazole, in vitro studies; cited from earlier work
[2] = format: in vivo, human (Chinese patients)

SMILES	Share of all metabolites [1]	Frequency of supra-therapeutic levels (> 5µg/mL) ([2]; CYP2C19 intermediate metabolizer patients) [%]	Frequency of supra-therapeutic levels (> 5µg/mL) ([2]; CYP2C19 normal metabolizer patients) [%]	Frequency of supra-therapeutic levels (> 5µg/mL) ([2]; CYP2C19 poor metabolizer patients) [%]	Median trough concentration of voriconazole in sub-group analysis ([2]; PM/PPIs users group, excluding cases administered omeprazole or esomeprazole)	concentration at 12 h ([2]; human, plasma, 200 mg, Voriconazole trough concentration, median (IQR), all patients, 250 samples from 114 patients, voriconazole 200mg 12hrly, steady state) [ng/mL]
C[C@@H](c1nc[n+]([O-])cc1F)[C@](O)(Cn1cncn1)c1ccc(F)cc1F [voriconazole N-oxide]	about 74%					
C[C@@H](c1ncncc1F)[C@](O)(Cn1cncn1)c1ccc(F)cc1F [voriconazole]		13.5	15.4	47.8	below supra-therapeutic levels	2100
